Measured values reported in PubChem BioAssay AID179 (DTP/NCI, 2004).
Activity calls are given as the source filed them.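 The calls were made as follows: active = compounds giving half or more protection of infected cells from virus-caused growth loss, again on retest; inactive = the rest.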

Tested on: CEM cells HIV-1 protection, formazan growth assay
Assay: NCI AIDS Antiviral Assay
Details: for IC50: measured here: growth of uninfected CEM cells
Procedure, shortened: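 Steps: treat uninfected and HIV-1-infected human CEM cells at five drug levels; quantify growth by soluble formazan; retest any compound reaching 50% protection; classify actives from the retest.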

Structure (SMILES)	EC50	IC50	outcome
O=C(O)CSC(=S)CCCCCCCCCCC(=S)SCC(=O)O	> 120 µM	> 120 µM	–
Cn1c(N)cc[n+](C2CCC(CO)O2)c1=O (stereo not given) (tested in a mixture with another compound)	9.12 µM	708 µM	–
CCOC(=O)C(=O)Nc1nc2c(OCC)cccc2s1	–	–	inactive
COc1nc2ncc([C@@H](O)[C@H](O)CO)nc2c(=O)[nH]1	> 200 µM	> 200 µM	–
N#C/C(=C\N1CC(=O)NC1=S)c1nc2ccccc2s1	–	–	inactive
COC(=O)C1C23CC(=O)CC1(c1ccc4c(c1)OCO4)C2NC3=O (stereo not given)	> 398 µM	> 398 µM	–
CCOC(=O)C1(N)CC1	> 200 µM	> 200 µM	–
CN(C)CCCN1c2ccccc2Sc2ccc(C(F)(F)F)cc21	> 200 µM	107 µM	–
CC(=O)NS(=O)(=O)c1ccc(NCc2cccc3c(=O)c4ccc(Cl)cc4oc23)cc1	> 200 µM	3.16 µM	–
CC(=O)SC1CC(=O)C=C2CCC3C4CCC(=O)OC4(C)CCC3C21C (stereo not given)	> 200 µM	> 200 µM	–
Clc1ccc(C2ON=C(c3ccccc3)N2C23CC4CC(CC(C4)C2)C3)c(Cl)c1 (stereo not given)	> 200 µM	> 200 µM	–
CCCCC(C(=O)C(=O)NC1C2CC3CC(C2)CC1C3)C(=O)C(C)C (stereo not given)	> 74.1 µM	> 74.1 µM	–
CCOP(=O)(CC(=O)c1cc2ccccc2[nH]1)OCC	> 851 µM	437 µM	–
C=C1C2CC[C@@]3(CC[C@@H]4[C@@]5(C)CCC[C@@]4(C=[N+](CCOC(C)=O)C5)[C@@H]3C2)[C@@H]1OC(C)=O	–	–	inactive
O=C1NC(O)CCN1C1OC(CO)C(O)C1O (stereo not given)	> 200 µM	> 200 µM	–
Cn1cnc([N+](=O)[O-])c1Sc1ccccc1N	> 525 µM	61.7 µM	–
NNC(=O)/C(=C/c1cccc([N+](=O)[O-])c1)NC(=O)c1ccccc1	> 398 µM	> 398 µM	–
NC(=O)C1C2CC3C(NC(=O)C31)C2O (stereo not given)	> 200 µM	> 200 µM	–
COc1ccc(N=C/C=C/c2ccccc2)cc1	> 21.9 µM	> 21.9 µM	–
CC1(C)OCC(CO)(Nc2nc(N3CC3)nc(N3CC3)n2)CO1	> 200 µM	0.741 µM	–
Cc1ccc(NC(=S)/N=C/c2c(O)[nH]c(=O)[nH]c2=O)c(C)c1	> 200 µM	151 µM	–
O=c1[nH]c(=O)c2c([nH]1)[nH]c1ccccc12	> 200 µM	> 200 µM	–

Structure (SMILES)	EC50	IC50	outcome
Cc1ccc(S(=O)(=O)N2CCSCCSCCSCCN(S(=O)(=O)c3ccc(C)cc3)CC2)cc1	> 12.6 µM	> 12.6 µM	–
COc1ccc(-c2c3c([nH]c(=S)c2C#N)CCC3)cc1	178 µM	> 200 µM	–
CCN(CC)CC1CCCCN1CC(=O)N1c2ccccc2C(=O)Nc2cccnc21 (stereo not given)	> 200 µM	32.4 µM	–
O=c1nc(-c2ccccc2)cc(CC(O)c2ccc(Cl)c(Cl)c2)[nH]1 (stereo not given)	> 20 µM	> 20 µM	–
O=C(O)C1C2CC(C1C(=O)O)C1C2N1S(=O)(=O)c1ccccc1 (stereo not given)	> 741 µM	> 741 µM	–
N#C/C(=C\c1ccc(O)c(O)c1)C(=O)NCCCNC(=O)/C(C#N)=C/c1ccc(O)c(O)c1	> 200 µM	66.1 µM	–
C=C1CN(S(=O)(=O)c2ccc(C)cc2)CCCN(CCC)CCCN(S(=O)(=O)c2ccc(C)cc2)C1	> 200 µM	2.95 µM	–
COC(=O)C(C)(N=Cc1ccccc1)c1ccccc1 (stereo not given)	> 200 µM	> 200 µM	–
O=c1cc(C(F)(F)F)[nH]c2c3ncccc3c3nc4ccccc4nc3c12	0.214 µM	2.82 µM	–
COc1ccc(C2C(Cl)C(=O)N2NC(=O)c2ccc(N)cc2)cc1OC (stereo not given)	> 200 µM	8.51 µM	–
CCCc1cc(=O)oc2c3c(cc(OC)c12)O[C@H](C)[C@H](C)[C@@H]3O	> 200 µM	38.9 µM	–
CN(C)/C=C/C(=O)c1cccc(C(=O)/C=C/N(C)C)n1	> 19.1 µM	> 19.1 µM	–
O=C1Nc2nccnc2C(=O)N2CCC[C@@H]12	> 200 µM	> 200 µM	–
O=[N+]([O-])c1ccc(C2=NOC3COC4C=CC=CC4OCC23)cc1 (stereo not given)	> 30.2 µM	> 30.2 µM	–
Cn1c2cc(O)cc(O)c2c(=O)c2c([N+](=O)[O-])cccc21	> 141 µM	> 141 µM	–
COc1ncc(C#CC(=O)c2ccccc2)c(OC)n1	> 2 µM	0.331 µM	–
O=C1NC(N2CCOCC2)=N/C1=C\c1cccs1	> 200 µM	> 200 µM	–
CC1=NC(C)CNC(C)(C)CC(C)=NC(C)CNC(C)(C)C1 (stereo not given)	> 200 µM	> 200 µM	–
C[C@@H]1C[C@H]2[C@@H]3CCC4=CC(=O)C=C[C@]4(C)[C@@]3(F)[C@@H](O)C[C@]2(C)[C@H]1O	–	–	inactive
N#CC1C(=O)NC(=O)C(C#N)C12CCCC(C(F)(F)F)C2 (stereo not given)	> 200 µM	> 200 µM	–
O=S(=O)(c1ccccc1)C1(Sc2ccccc2)CC(Br)[C@@H](Br)C1 (stereo not given in full)	> 15.1 µM	> 15.1 µM	–
Nc1cc(-c2ccc(Cl)cc2)nn1-c1nnc2c(n1)[nH]c1ccccc12	> 200 µM	> 200 µM	–

Structure (SMILES)	EC50	IC50	outcome
C=CC[C@]12CC(=O)OC(C=CC13OCCO3)C2	> 200 µM	> 200 µM	–
CCOC(=O)C1=C(OC(OCC)C(CC)[Se]c2ccccc2)CCC1 (stereo not given)	> 45.7 µM	> 45.7 µM	–
CC1=NN(C(=O)c2ccccc2Br)C(=O)C1N=Nc1ccccc1C(=O)O (stereo not given)	–	–	inactive
O=C(/C=C1/Nc2ccc([N+](=O)[O-])cc2NC1O)c1cccc([N+](=O)[O-])c1 (stereo not given)	> 20.4 µM	> 20.4 µM	–
CN(C)C1C(=O)C(C(=O)NCNC(CCS(C)=O)C(=O)O)=C(O)C2(O)C(=O)C3=C(O)c4c(O)cccc4C(C)(O)C3CC12 (stereo not given)	> 204 µM	> 100 µM	–
COC(=O)c1cc(Cc2cc(C(c3cc(Cc4cc(Cl)c(O)c(C(=O)OC)c4)c(O)c(C(=O)OC)c3)C(Cl)(Cl)Cl)cc(C(=O)OC)c2O)cc(Cl)c1O	> 200 µM	> 200 µM	–
CC/C(CC(=O)CCC(=O)Nc1ccc(C)c(C)c1)=N\NC(=O)c1cc2ccccc2cc1O	> 15.8 µM	10 µM	–
O=[N+]([O-])c1ccc(C2=Nn3cnnc3SC2)o1	–	–	inactive
C=C/C(C)=C/[C@H](C)C(=O)C[C@H](O)CC1CC(=O)NC(=O)C1	–	–	inactive
O=C(O)/C(Cl)=C(\Cl)C(=O)Nc1ccc(Cl)c(Cl)c1Cl	–	–	inactive
CCOP(=O)(OCC)C(Nc1ccc(F)cc1)c1cccc([N+](=O)[O-])c1 (stereo not given)	> 200 µM	55 µM	–
C=C(C)C(=O)O[C@H]1[C@H]2[C@H](OC(=O)[C@H]2C)[C@H](O)[C@@H](C)[C@@H]2C=CC(=O)[C@]21C	> 363 µM	1.91 µM	–
COc1cc(-c2oc3ccccc3c(=O)c2O)cc(OC)c1OC	> 200 µM	79.4 µM	–
O=C(/C=C/c1ccccc1O)c1ccccc1	> 60.3 µM	> 60.3 µM	–
COc1ccc(CNNCc2ccc(OC)cc2)cc1	> 200 µM	110 µM	–
CC(=O)/C(=C/c1ccc(C#N)cc1)C(=O)c1ccccc1	> 95.5 µM	16.6 µM	–
O=C(O)CCCc1ccc([As](=O)(O)O)cc1[N+](=O)[O-]	> 200 µM	> 200 µM	–
Cc1cn2c(n1)Nc1sc3c(c1C2)CCCC3	> 200 µM	30.2 µM	–
CN1CCN(C)C12C=c1ccccc1=CC21CC1	–	–	inactive
COC(=O)c1ccccc1N=Cc1ccc(N(CCC#N)S(=O)(=O)c2ccccc2)cc1	> 562 µM	479 µM	–
C=CCc1cc(-c2cc(CC=C)c(O)c(CN(CC)CC)c2)cc(CN(CC)CC)c1O	> 200 µM	93.3 µM	–

Structure (SMILES)	EC50	IC50	outcome
CC(C)c1cc(=O)oc2c3c(ccc12)OC(C)(C)[C@H](OC(=O)C12CCC(C)(C(=O)O1)C2(C)C)[C@@H]3OC(=O)C12CCC(C)(C(=O)O1)C2(C)C (stereo not given in full)	0.324 µM	33.9 µM	–
N#CC1CC12c1ccccc1C(=O)c1ccccc12 (stereo not given)	135 µM	145 µM	–
CCCCc1c2c(nc3c1CCC/C3=C\c1ccccc1)C(=O)C(CN(C)C)CC2 (stereo not given)	> 9.33 µM	> 9.33 µM	–
COc1ccccc1NC(=O)C1=C(C)NC(C)=C(C(=O)Nc2ccccc2OC)C1c1ccc(N(C)C)cc1	> 42.7 µM	29.5 µM	–
COc1ccc(N[C@H]([C@@H](c2ccccc2)S(=O)c2ccc(C)cc2)C(F)(F)F)cc1 (stereo not given in full)	> 200 µM	34.7 µM	–
CC(=O)c1ccc(NC(=S)NN)cc1	> 174 µM	148 µM	inactive
Nc1nc(Cl)cc(NCCCCCNc2cc(Cl)nc(N)n2)n1	–	–	inactive
NP(=O)(Nc1ccccc1)Nc1ccccc1	> 200 µM	> 200 µM	–
CCN(CC)C(=O)c1ccc(O)c(OC)c1	> 200 µM	> 200 µM	–
Cc1cc(Cl)ccc1N1C(=O)C(=O)C(c2nc3ccccc3s2)/C(=N\NC(=O)c2ccccc2O)C1=O (stereo not given)	> 25.7 µM	> 25.7 µM	–
COc1cc2c[n+](C)c3c4cc(OC)c(OC(C)C)cc4ccc3c2cc1OC	> 295 µM	13.5 µM	–
O=C(O)c1ccccc1/C=N\NC1=NCCN1	69.2 µM	115 µM	–
Clc1cccc2[nH]ncc12	> 200 µM	> 100 µM	–
O=C(Nc1cc2c(oc1=O)CCCCCC2)c1ccccc1	> 200 µM	> 200 µM	–
O=C(O)C1=C(C(=O)Nc2ccccc2)C2C=CC1C2 (stereo not given)	> 977 µM	214 µM	–
O=C(NNC(=O)c1cccc(C(=O)NNC(=O)c2ccc(Cl)c(Cl)c2)n1)c1ccc(Cl)c(Cl)c1	> 200 µM	1.07 µM	–
CCCCCCCCCCCCCCCC(=O)Nc1ccn(C2CCC(COP(=O)(O)OCC3OC(n4cc(C)c(=O)[nH]c4=O)CC3F)O2)c(=O)n1 (stereo not given)	0.0132 µM	0.2 µM	–
CC1(C)CC(=O)C(/C=N/C(=S)NCCc2ccccc2)=C(O)C1	> 200 µM	> 200 µM	–
CCCCCCCCCCCCCCNC1=C(OC)C(=O)C(NCCCCCCCCCCCCCC)=C(OC)C1=O	> 79.4 µM	> 79.4 µM	–
Nc1cnn2cnnc2c1	> 200 µM	> 200 µM	–
O=C1C=C(c2ccccc2)OC1(Cl)c1ccccc1 (stereo not given)	> 200 µM	38 µM	–
